Measurements from article PMC7448270, “Channeling C1 Metabolism toward S-Adenosylmethionine-Dependent Conversion of Estrogens to Androgens in Estrogen-Degrading Bacteria” (mBio, 2020).

Test system: T1, estradiol/estrogen methyltransferase (EMT; EmtABCD)
T1 construct: gene emtA; native, not purified; cell-free extract of estradiol-grown cells; assignment to emtABCD by proteogenomics; with Estrogen methyltransferase component EmtC; Estrogen methyltransferase component EmtD (oxidoreductase-like, putative reductive cofactor regeneration)
Assay: UPLC assay of methylation by cell-free extract, Michaelis-Menten
Format: biochemical, Denitratisoma oestradiolicum
Settings: SAM methyl donor, Ti(III)-citrate, MgCl2, HEPES/KOH pH 8.0, 30°C, anaerobic; crude soluble extract, enzyme not purified

SMILES | Km
C[C@]12CC[C@@H]3c4ccc(O)cc4CC[C@H]3[C@@H]1CCC2=O [estrone] | 14 ± 3 µM
C[C@]12CC[C@@H]3c4ccc(O)cc4CC[C@H]3[C@@H]1CC[C@@H]2O [17β-estradiol] | 35 ± 4 µM
